Measured values published in patent publication US20080274892A1, “Novel Haloalkylsulfonanilide Derivative, Herbicide, and Method of Use Thereof” (priority 2005, published 2008).

Legend:
[1] = test system: barnyard glass; assay: Test Example 2: herbicidal efficacy on rice paddy weeds post-emergence; type: in vivo, Echinochloa crus-galli; conditions: 21 days after treatment
Source text: (§1) The standard of judgment for herbicidal efficacy (degree of growth inhibition) and phytotoxicity 4 . . . 90%-100% of herbicidal efficacy or phytotoxicity 3 . . . 70%-89% of herbicidal efficacy or phytotoxicity 2 . . . 40%-69% of herbicidal efficacy or phytotoxicity 1 . . . 1%-39% of herbicidal efficacy or phytotoxicity 0 . . . 0% of herbicidal efficacy or phytotoxicity
(§2) A 75 cm^2 plastic pot was filled with soil (clay loam) and planted seeds of barnyard glass and bulrush which is a rice paddy weed. After covering the top with 75 cm^3 soil mixed with seeds of false pimpernel, the pot was filled with water so that the soil submerged under 5 cm depth of water and kept in a hot house. […] The pot was kept in a hot house for 21 days after the treatment and the herbicidal efficacy was investigated and evaluated according to the standard in Test Example 1 by comparing with the untreated control. “-” in the table represents test not done.

[2] = test system: false pimpernel; assay: as above; type: in vivo, Lindernia pyxidaria; conditions: 21 days after treatment
Source text: as §1, §2

[3] = test system: bulrush; assay: as above; type: in vivo, Scirpus juncoides; conditions: 21 days after treatment
Source text: as §1, §2

[4] = test system: bulrush; assay: Test Example 1: herbicidal efficacy on rice paddy weeds pre-emergence; type: in vivo, Scirpus juncoides; conditions: 21 days
Method: (§3) A 75 cm^2 plastic pot was filled with soil (clay loam) and planted seeds of bulrush which is a rice paddy weed. After covering the top with 75 cm^3 soil mixed with seeds of false pimpernel, the pot was filled with water so that the soil submerged under 5 cm depth of water. The predetermined effective dosage ([…]) of a formulation containing the compound of the present invention prepared according to Formulation Example 1-4 as an active ingredient was diluted in water and added to the pot water surface dropwise. The pot was kept in a hot house for 21 days and the herbicidal efficacy was investigated. The herbicidal efficacy was evaluated according to the following standard by comparing with untreated control. “-” in the table represents test not done.
as §1

[5] = test system: paddy rice plant (cultivar: Nihonbare); assay: Test Example 3: phytotoxicity test for transplanted paddy rice plant; type: in vivo; conditions: 21 days after treatment; for Phytotoxicity to paddy rice: transplanted rice
Method: as §1
A 75 cm^2 plastic pot was filled with soil (clay loam), and water was added so that the soil was submerged under 5 cm depth of water. Two paddy rice plant (cultivar: Nihonbare) at two leaves stage were transplanted at the depth of 1 cm and kept in a hot house. […] The pot was kept in a hot house for 21 days after the treatment and the phytotoxicity was investigated and evaluated according to the standard in Test Example 1 by comparing with the untreated control. “-” in the table represents test not done.

[6] = test system: false pimpernel; assay: Test Example 1: herbicidal efficacy on rice paddy weeds pre-emergence; type: in vivo, Lindernia pyxidaria; conditions: 21 days
Method: as §3, §1

[7] = dosage 1000 g/ha, post-emergence, one leaf stage
[8] = dosage 1000 g/ha, treated 5 days after transplantation
[9] = dosage 300 g/ha, post-emergence, one leaf stage
[10] = dosage 1000 g/ha active ingredient, post-emergence treatment at one leaf stage, vs untreated control
[11] = dosage 1000 g/ha active ingredient, vs untreated control
[12] = dosage 100 g/ha, post-emergence, one leaf stage

Row | Structure (SMILES) | Burnyard grass post (herbicidal efficacy grade) [1, 7] | False pimpernel post (herbicidal efficacy grade) [2, 7] | Bulrush post (herbicidal efficacy grade) [3, 7] | Bulrush pre (herbicidal efficacy grade) ([4]; dosage 1000 g/ha) | Phytotoxicity to paddy rice [5, 8] | False pimpernel pre (herbicidal efficacy grade) ([6]; dosage 1000 g/ha) | Burnyard grass post (herbicidal efficacy grade) [1, 9] | False pimpernel post (herbicidal efficacy grade) [2, 9] | Bulrush post (herbicidal efficacy grade) [3, 9] | Bulrush pre (herbicidal efficacy grade) ([4]; dosage 300 g/ha) | Phytotoxicity to paddy rice ([5]; dosage 300 g/ha) | False pimpernel pre (herbicidal efficacy grade) ([6]; dosage 300 g/ha) | other results
1 | CCCC1CN(Cc2ccccc2NS(=O)(=O)C(F)(F)F)C(=O)O1 (stereo not drawn) [Compound 1-29] | 4 (90%-100% of herbicidal efficacy or phytotoxicity) | 4 (90%-100% of herbicidal efficacy or phytotoxicity) | 4 (90%-100% of herbicidal efficacy or phytotoxicity) | 4 (90%-100% of herbicidal efficacy or phytotoxicity) | 2 (40%-69% of herbicidal efficacy or phytotoxicity) | 4 (90%-100% of herbicidal efficacy or phytotoxicity) | – | – | – | – | – | – | –
2 | CC1(COc2ccccc2)CN(Cc2ccccc2NS(=O)(=O)C(F)(F)F)C(=O)O1 (stereo not drawn) [Compound 1-155] | – | – | – | – | – | – | 1 (1%-39% of herbicidal efficacy or phytotoxicity) | 4 (90%-100% of herbicidal efficacy or phytotoxicity) | 4 (90%-100% of herbicidal efficacy or phytotoxicity) | 4 (90%-100% of herbicidal efficacy or phytotoxicity) | 1 (1%-39% of herbicidal efficacy or phytotoxicity) | 4 (90%-100% of herbicidal efficacy or phytotoxicity) | –
3 | CC(C)COC(=O)N(c1ccccc1CN1CC(C(F)(F)F)OC1=O)S(=O)(=O)C(F)(F)F (stereo not drawn) [Compound 1-20] | – | – | – | – | – | – | 4 (90%-100% of herbicidal efficacy or phytotoxicity) | 3 (70%-89% of herbicidal efficacy or phytotoxicity) | 4 (90%-100% of herbicidal efficacy or phytotoxicity) | 4 (90%-100% of herbicidal efficacy or phytotoxicity) | 0 (0% of herbicidal efficacy or phytotoxicity) | 3 (70%-89% of herbicidal efficacy or phytotoxicity) | –
4 | CC1(C)CN(Cc2cc3c(cc2NS(=O)(=O)C(F)(F)F)OCO3)C(=O)O1 [1-215] | – | – | – | – | – | – | – | – | – | – | – | – | Burnyard grass post (herbicidal efficacy grade) [1, 10]: 1 (1%-39% of herbicidal efficacy or phytotoxicity); False pimpernel post (herbicidal efficacy grade) [2, 10]: 3 (70%-89% of herbicidal efficacy or phytotoxicity); Bulrush post (herbicidal efficacy grade) [3, 10]: 2 (40%-69% of herbicidal efficacy or phytotoxicity); Bulrush pre (herbicidal efficacy grade) [4, 11]: 2 (40%-69% of herbicidal efficacy or phytotoxicity); Phytotoxicity to paddy rice (grade) ([5]; dosage 1000 g/ha active ingredient, treated 5 days after transplantation, vs untreated control): 0 (0% of herbicidal efficacy or phytotoxicity); False pimpernel pre (herbicidal efficacy grade) [6, 11]: 4 (90%-100% of herbicidal efficacy or phytotoxicity)
5 | CC(C)(C)C1CN(Cc2ccccc2NS(=O)(=O)C(F)(F)F)C(=O)O1 (stereo not drawn) [Compound 1-33] | 4 (90%-100% of herbicidal efficacy or phytotoxicity) | 4 (90%-100% of herbicidal efficacy or phytotoxicity) | 4 (90%-100% of herbicidal efficacy or phytotoxicity) | 4 (90%-100% of herbicidal efficacy or phytotoxicity) | 2 (40%-69% of herbicidal efficacy or phytotoxicity) | 4 (90%-100% of herbicidal efficacy or phytotoxicity) | – | – | – | – | – | – | –
6 | CCCC1COC(=O)N1Cc1ccccc1NS(=O)(=O)C(F)(F)F (stereo not drawn) [Compound 1-7] | – | – | – | – | – | – | 1 (1%-39% of herbicidal efficacy or phytotoxicity) | 2 (40%-69% of herbicidal efficacy or phytotoxicity) | 4 (90%-100% of herbicidal efficacy or phytotoxicity) | 4 (90%-100% of herbicidal efficacy or phytotoxicity) | 1 (1%-39% of herbicidal efficacy or phytotoxicity) | 4 (90%-100% of herbicidal efficacy or phytotoxicity) | –
7 | COC(=O)N(c1ccccc1CN1CC(C)(COc2ccccc2)OC1=O)S(=O)(=O)C(F)(F)F (stereo not drawn) [Compound 1-159] | 4 (90%-100% of herbicidal efficacy or phytotoxicity) | 4 (90%-100% of herbicidal efficacy or phytotoxicity) | 4 (90%-100% of herbicidal efficacy or phytotoxicity) | 4 (90%-100% of herbicidal efficacy or phytotoxicity) | 1 (1%-39% of herbicidal efficacy or phytotoxicity) | 4 (90%-100% of herbicidal efficacy or phytotoxicity) | – | – | – | – | – | – | –
8 | Cc1c(Cl)ccc(OC(C)C(=O)N(c2ccccc2CN2CC(C)(C)OC2=O)S(=O)(=O)C(F)(F)F)c1Cl (stereo not drawn) [Compound 1-139] | – | – | – | – | – | – | 3 (70%-89% of herbicidal efficacy or phytotoxicity) | 4 (90%-100% of herbicidal efficacy or phytotoxicity) | 4 (90%-100% of herbicidal efficacy or phytotoxicity) | 4 (90%-100% of herbicidal efficacy or phytotoxicity) | 3 (70%-89% of herbicidal efficacy or phytotoxicity) | 4 (90%-100% of herbicidal efficacy or phytotoxicity) | –
9 | O=C1OCCN1Cc1ccccc1NS(=O)(=O)C(F)(F)F [Compound 1-1] | 4 (90%-100% of herbicidal efficacy or phytotoxicity) | 4 (90%-100% of herbicidal efficacy or phytotoxicity) | 4 (90%-100% of herbicidal efficacy or phytotoxicity) | 4 (90%-100% of herbicidal efficacy or phytotoxicity) | 1 (1%-39% of herbicidal efficacy or phytotoxicity) | 4 (90%-100% of herbicidal efficacy or phytotoxicity) | – | – | – | – | – | – | –
10 | CCC1(C)CN(Cc2ccccc2NS(=O)(=O)C(F)(F)F)C(=S)O1 (stereo not drawn) [Compound 1-180] | 4 (90%-100% of herbicidal efficacy or phytotoxicity) | 4 (90%-100% of herbicidal efficacy or phytotoxicity) | 4 (90%-100% of herbicidal efficacy or phytotoxicity) | 4 (90%-100% of herbicidal efficacy or phytotoxicity) | 2 (40%-69% of herbicidal efficacy or phytotoxicity) | 4 (90%-100% of herbicidal efficacy or phytotoxicity) | – | – | – | – | – | – | –
11 | CCCCC1(C)CN(Cc2ccccc2N(C(=O)OC)S(=O)(=O)C(F)(F)F)C(=O)O1 (stereo not drawn) [Compound 1-128] | – | – | – | – | – | – | – | – | – | – | – | – | Burnyard grass post (herbicidal efficacy grade) [1, 12]: 3 (70%-89% of herbicidal efficacy or phytotoxicity); False pimpernel post (herbicidal efficacy grade) [2, 12]: 2 (40%-69% of herbicidal efficacy or phytotoxicity); Bulrush post (herbicidal efficacy grade) [3, 12]: 3 (70%-89% of herbicidal efficacy or phytotoxicity); Bulrush pre (herbicidal efficacy grade) ([4]; dosage 100 g/ha): 2 (40%-69% of herbicidal efficacy or phytotoxicity); Phytotoxicity to paddy rice ([5]; dosage 100 g/ha as printed in the table line): 1 (1%-39% of herbicidal efficacy or phytotoxicity); False pimpernel pre (herbicidal efficacy grade) ([6]; dosage 100 g/ha): 4 (90%-100% of herbicidal efficacy or phytotoxicity)
12 | CC(C)COC(=O)N(c1ccccc1CN1CC(COc2ccccc2)OC1=O)S(=O)(=O)C(F)(F)F (racemic) [Compound 1-52] | – | – | – | – | – | – | 3 (70%-89% of herbicidal efficacy or phytotoxicity) | 4 (90%-100% of herbicidal efficacy or phytotoxicity) | 4 (90%-100% of herbicidal efficacy or phytotoxicity) | 4 (90%-100% of herbicidal efficacy or phytotoxicity) | 0 (0% of herbicidal efficacy or phytotoxicity) | 4 (90%-100% of herbicidal efficacy or phytotoxicity) | –
